From patent publication US20260055079A1, “PHTHALAZINONE COMPOUNDS AS PARP7 INHIBITORS” (AZKARRA THERAPEUTICS, INC., priority 2022, published 2026)

molecular target: His-GST-PARP7 (Homo sapiens (Human), UniProt Q7Z3E1); test: PARP7 biochemical assay; details: not given
Sequence (Q7Z3E1 whole entry): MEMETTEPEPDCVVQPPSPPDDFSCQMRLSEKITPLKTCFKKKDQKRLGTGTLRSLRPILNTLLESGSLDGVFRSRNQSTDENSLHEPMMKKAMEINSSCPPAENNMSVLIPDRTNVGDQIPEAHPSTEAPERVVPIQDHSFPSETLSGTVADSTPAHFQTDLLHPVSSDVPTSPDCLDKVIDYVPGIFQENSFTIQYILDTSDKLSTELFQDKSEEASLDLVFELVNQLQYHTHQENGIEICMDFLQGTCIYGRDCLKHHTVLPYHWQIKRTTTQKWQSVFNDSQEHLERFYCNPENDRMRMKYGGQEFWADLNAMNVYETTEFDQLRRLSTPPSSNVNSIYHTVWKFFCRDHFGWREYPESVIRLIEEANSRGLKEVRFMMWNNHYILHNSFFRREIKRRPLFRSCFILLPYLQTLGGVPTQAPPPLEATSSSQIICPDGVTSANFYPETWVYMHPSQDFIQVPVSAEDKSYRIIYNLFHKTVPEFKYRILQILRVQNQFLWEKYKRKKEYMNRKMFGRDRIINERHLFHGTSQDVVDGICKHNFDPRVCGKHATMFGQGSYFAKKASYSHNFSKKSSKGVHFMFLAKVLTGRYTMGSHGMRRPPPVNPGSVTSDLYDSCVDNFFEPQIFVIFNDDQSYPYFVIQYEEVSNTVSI

Row | SMILES | IC50 [nM]
1 | O=C(c1cc(Cc2n[nH]c(=O)c3ccc(OC4CCC4)cc23)ccc1F)N1C[C@H]2CC[C@@H](C1)N2C(=O)C1CC1 [Example 107, 6-Cyclobutoxy-4-(3-(8-(cyclopropanecarbonyl)-3,8-diazabicyclo[3.2.1]octane-3-carbonyl)-4-fluorobenzyl)phthalazin-1(2H)-one] | 100 to 500

same assay, conditions: read-out: PARP7 IC50

Row | SMILES | IC50 [nM]
2 | O=C(c1cc(Cc2n[nH]c(=O)c3ccc(OC4CCC4)cc23)ccc1F)N1CCn2c(CO)nnc2C1 [Example 166, 6-Cyclobutoxy-4-(4-fluoro-3-(3-(hydroxymethyl)-5,6,7,8-tetrahydro-[1,2,4]triazolo[4,3-a]pyrazine-7-carbonyl)benzyl)phthalazin-1(2H)-one] | < 50
3 | N#Cc1ccc(N2CCN(C(=O)c3cc(Cc4n[nH]c(=O)c5ccc(Oc6ccccn6)cc45)ccc3F)CC2)nc1 [Example 38, 6-(4-(2-Fluoro-5-((4-oxo-7-(pyridin-2-yloxy)-3,4-dihydrophthalazin-1-yl)methyl)benzoyl)piperazin-1-yl)nicotinonitrile] | < 50
4 | [2H]C([2H])(c1ccc(F)c(C(=O)N2CCN(c3ccc(C#N)cn3)CC2)c1)c1n[nH]c(=O)c2ccc(C#CC)cc12 [Example 73, 6-(4-(2-Fluoro-5-((4-oxo-7-(prop-1-yn-1-yl)-3,4-dihydrophthalazin-1-yl)methyl-d2)benzoyl)piperazin-1-yl)nicotinonitrile] | < 50
5 | CN(c1nccc(C(F)(F)F)n1)C1CN(C(=O)c2cc(Cc3n[nH]c(=O)c4ccc(OC5CCC5)cc34)ccc2F)C1 [Example 120, 6-cyclobutoxy-4-(4-fluoro-3-(3-(methyl(4-(trifluoromethyl)pyrimidin-2-yl)amino)azetidine-1-carbonyl)benzyl) phthalazin-1(2H)-one] | 500 to 2000
6 | CC#Cc1ccc2c(=O)[nH]nc(Cc3ccc(F)c(C(=O)N4CCN(c5ncc(C(F)(F)F)cn5)CC4)c3)c2c1 [Example 48, 4-(4-Fluoro-3-(4-(5-(trifluoromethyl)pyrimidin-2-yl)piperazine-1-carbonyl)benzyl)-6-(prop-1-yn-1-yl)phthalazin-1(2H)-one] | 100 to 500
7 | CC#Cc1ccc2c(=O)[nH]nc(Cc3ccc(F)c(C#N)c3)c2c1 [Example 76, 2-Fluoro-5-((4-oxo-7-(prop-1-yn-1-yl)-3,4-dihydrophthalazin-1-yl)methyl)benzonitrile] | > 2000
8 | Cc1cnc(N(C)C2CN(C(=O)c3cc(Cc4n[nH]c(=O)c5ccc(OC6CCC6)cc45)ccc3F)C2)n1C [Example 110, 6-Cyclobutoxy-4-(3-(3-((1,5-dimethyl-1H-imidazol-2-yl)(methyl)amino)azetidine-1-carbonyl)-4-fluorobenzyl)phthalazin-1(2H)-one] | 100 to 500
9 | N#Cc1ccc(N2CC(NC(=O)c3cc(Cc4n[nH]c(=O)c5ccc(OC6CCC6)cc45)ccc3F)C2)nc1 [Example 204, N-(1-(5-Cyanopyridin-2-yl)azetidin-3-yl)-5-((7-cyclobutoxy-4-oxo-3,4-dihydrophthalazin-1-yl)methyl)-2-fluorobenzamide] | > 2000
10 | O=C(c1ccc(Cl)c(Cc2n[nH]c(=O)c3ccc(OC4CCC4)cc23)c1)N1CCN(c2ncc(C(F)(F)F)cn2)CC1 [Example 173, 4-(2-Chloro-5-(4-(5-(trifluoromethyl)pyrimidin-2-yl)piperazine-1-carbonyl)benzyl)-6-cyclobutoxyphthalazin-1(2H)-one] | 500 to 2000
11 | Cc1cccc(Oc2ccc3c(=O)[nH]nc(Cc4ccc(F)c(C(=O)N5CCN(c6ccc(C#N)cn6)CC5)c4)c3c2)c1 [Example 90, 6-(4-(2-fluoro-5-((4-oxo-7-(m-tolyloxy)-3,4-dihydrophthalazin-1-yl)methyl)benzoyl)piperazin-1-yl)nicotinonitrile] | < 50
12 | N#Cc1ccc(N2CC3CCC2CN3C(=O)c2cc(Cc3n[nH]c(=O)c4ccc(OC5CCC5)cc34)ccc2F)nc1 (stereo not drawn) [Example 143, 6-(5-(5-((7-cyclobutoxy-4-oxo-3,4-dihydrophthalazin-1-yl)methyl)-2-fluorobenzoyl)-2,5-diazabicyclo[2.2.2]octan-2-yl)nicotinonitrile] | 50 to 100
13 | CN(C(=O)C1CCO1)C1CN(C(=O)c2cc(Cc3n[nH]c(=O)c4ccc(OC5CCC5)cc34)ccc2F)C1 (stereo not drawn) [Example 122, N-(1-(5-((7-cyclobutoxy-4-oxo-3,4-dihydrophthalazin-1-yl)methyl)-2-fluorobenzoyl)azetidin-3-yl)-N-methyloxetane-2-carboxamide] | 500 to 2000
14 | N#Cc1ccc(N2CCC3C2CCN3C(=O)c2cc(Cc3n[nH]c(=O)c4ccc(OC5CCC5)cc34)ccc2F)nc1 (stereo not drawn) [Example 111, 6-(4-(5-((7-Cyclobutoxy-4-oxo-3,4-dihydrophthalazin-1-yl)methyl)-2-fluorobenzoyl)hexahydropyrrolo[3,2-b]pyrrol-1(2H)-yl)nicotinonitrile] | 100 to 500
15 | CC#Cc1ccc2c(=O)[nH]nc(Cc3ccc(F)c(C(=O)N4CC5CCC(C4)N5c4ccc(C#N)cn4)c3)c2c1 [Example 64, 6-(3-(2-Fluoro-5-((4-oxo-7-(prop-1-ynyl)-3,4-dihydrophthalazin-1-yl)methyl)benzoyl)-3,8-diazabicyclo[3.2.1]octan-8-yl)nicotinonitrile] | < 50
16 | O=c1[nH]nc(Cc2ccc3onc(N4CCN(c5ncc(C(F)(F)F)cn5)CC4)c3c2)c2cc(OC3CCC3)ccc12 [Example 209, 6-Cyclobutoxy-4-((3-(4-(5-(trifluoromethyl)pyrimidin-2-yl)piperazin-1-yl)benzo[d]isoxazol-5-yl)methyl)phthalazin-1(2H)-one] | > 2000
17 | O=C(c1cc(Cc2n[nH]c(=O)c3ccc(OC4CCC4)cc23)ccc1F)N1CCn2c(CF)nnc2C1 [Example 164, 6-Cyclobutoxy-4-(4-fluoro-3-(3-(fluoromethyl)-5,6,7,8-tetrahydro-[1,2,4]triazolo[4,3-a]pyrazine-7-carbonyl)benzyl)phthalazin-1(2H)-one] | < 50
18 | CC#Cc1ccc2c(=O)[nH]nc(C(C)CCCC(=O)N3CCN(c4ncc(C(F)(F)F)cn4)CC3)c2c1 (stereo not drawn) [Example 195, 4-(6-Oxo-6-(4-(5-(trifluoromethyl)pyrimidin-2-yl)piperazin-1-yl)hexan-2-yl)-6-(prop-1-yn-1-yl)phthalazin-1(2H)-one] | < 50
19 | CC#Cc1ccc2c(=O)[nH]nc(Cc3ccc4c(c3)C(=O)N(CCN(CC)c3ccc(C#N)cn3)C4)c2c1 [Example 75, 6-(Ethyl(2-(1-oxo-6-((4-oxo-7-(prop-1-ynyl)-3,4-dihydrophthalazin-1-yl)methyl)isoindolin-2-yl)ethyl)amino)nicotinonitrile] | > 2000
20 | N#Cc1ccnc(N2CCN(C(=O)c3cc(Cc4n[nH]c(=O)c5ccc(OC6CCC6)cc45)ccc3F)CC2)c1 [Example 95, 2-(4-(5-((7-Cyclobutoxy-4-oxo-3,4-dihydrophthalazin-1-yl)methyl)-2-fluorobenzoyl)piperazin-1-yl)isonicotinonitrile] | < 50
21 | O=C(NC1CN(c2ncc(C(F)(F)F)cn2)C1)c1cc(Cc2n[nH]c(=O)c3ccc(OC4CCC4)cc23)ccc1F [Example 205, 5-((7-Cyclobutoxy-4-oxo-3,4-dihydrophthalazin-1-yl)methyl)-2-fluoro-N-(1-(5-(trifluoromethyl)pyrimidin-2-yl)azetidin-3-yl)benzamide] | > 2000
22 | CC#Cc1ccc2c(=O)[nH]nc(Cc3ccc(F)c(C(=O)N4CCN(c5cncc(C#N)n5)CC4)c3)c2c1 [Example 55, 6-(4-(2-Fluoro-5-((4-oxo-7-(prop-1-ynyl)-3,4-dihydrophthalazin-1-yl)methyl)benzoyl)piperazin-1-yl)pyrazine-2-carbonitrile] | 100 to 500
23 | CC#Cc1ccc2c(=O)[nH]nc(Cc3ccc(F)c(C(=O)N4CCN(c5ncc(C)n5C)CC4)c3)c2c1 [Example 79, 4-(3-(4-(1,5-Dimethyl-1H-imidazol-2-yl)piperazine-1-carbonyl)-4-fluorobenzyl)-6-(prop-1-ynyl)phthalazin-1(2H)-one] | 100 to 500
24 | O=C(C1CC1)N1CCN(c2noc3c(Cc4n[nH]c(=O)c5ccc(OC6CCC6)cc45)cccc23)CC1 [Example 206, 6-Cyclobutoxy-4-((3-(4-(cyclopropanecarbonyl)piperazin-1-yl)benzo[d]isoxazol-7-yl)methyl)phthalazin-1(2H)-one] | 100 to 500
25 | N#Cc1ccc(N2CCN(C(=O)c3cc(Cc4n[nH]c(=O)c5ccc(CC(F)(F)F)cc45)ccc3F)CC2)nc1 [Example 183, 6-(4-(2-Fluoro-5-((4-oxo-7-(2,2,2-trifluoroethyl)-3,4-dihydrophthalazin-1-yl)methyl)benzoyl)piperazin-1-yl)nicotinonitrile] | < 50
26 | O=C(c1cccc(Cc2n[nH]c(=O)c3ccc(OC4CCC4)cc23)c1)N1CCN(c2ncc(C(F)(F)F)cn2)CC1 [Example 170, 6-cyclobutoxy-4-(3-(4-(5-(trifluoromethyl)pyrimidin-2-yl)piperazine-1-carbonyl)benzyl)phthalazin-1(2H)-one] | < 50
27 | O=C(c1cc(Cc2n[nH]c(=O)c3ccc(OC4CCC4)cc23)ccc1F)N1[C@@H]2CC[C@H]1CN(c1ncc(C(F)(F)F)cn1)C2 [Example 97, 6-cyclobutoxy-4-(4-fluoro-3-(3-(5-(trifluoromethyl)pyrimidin-2-yl)-3,8-diazabicyclo[3.2.1]octane-8-carbonyl)benzyl)phthalazin-1(2H)-one] | < 50
28 | CC#Cc1ccc2c(=O)[nH]nc(Cc3ccc(F)c(C(NCCN(CC)c4ccc(C#N)cn4)C(F)(F)F)c3)c2c1 (stereo not drawn) [Example 78, 6-(Ethyl(2-((2,2,2-trifluoro-1-(2-fluoro-5-((4-oxo-7-(prop-1-yn-1-yl)-3,4-dihydrophthalazin-1-yl)methyl)phenyl)ethyl)amino)ethyl)amino)nicotinonitrile] | > 2000
29 | N#Cc1ccc(N2CC3CN(C(=O)c4cc(Cc5n[nH]c(=O)c6ccc(OC7CCC7)cc56)ccc4F)CC3C2)nc1 (stereo not drawn) [Example 115, 6-(5-(5-((7-Cyclobutoxy-4-oxo-3,4-dihydrophthalazin-1-yl)methyl)-2-fluorobenzoyl)hexahydropyrrolo[3,4-c]pyrrol-2(1H)-yl)nicotinonitrile] | 100 to 500
30 | CC#Cc1ccc2c(=O)[nH]nc(Cc3cc(C(=O)N4CCN(c5ccc(C#N)cn5)CC4)c(F)cc3F)c2c1 [Example 77, 6-(4-(2,4-Difluoro-5-((4-oxo-7-(prop-1-yn-1-yl)-3,4-dihydrophthalazin-1-yl)methyl)benzoyl)piperazin-1-yl)nicotinonitrile] | < 50
